Assay results published in patent publication US10329262B2, “Quinazolinone antibiotics” (priority 2013, dated 2019).
Entries after “also recorded” stand apart in the source; their conditions may differ.

Experiments:
S. aureus NRS120 = experiment: MIC, CLSI broth microdilution, S. aureus NRS120; assay type: cell-based, Staphylococcus aureus
Description: (§1) MICs were evaluated following the CLSI microdilution method in BBL™ Mueller-Hinton II broth (Wikler et al., Clinical Laboratory Standards Institute Document M7-A7, 29 (2009)). Briefly, two-fold serial dilutions of compound were prepared in triplicate in 96-well plates and inoculated with 5×10^5 cfu/mL of the bacterial suspension. Plates were incubated at 37° C. for 16-20 hours.

PBP2a = target: T1, PBP2a (Staphylococcus aureus, UniProt Q53707); experiment: Bocillin FL competition assay, purified recombinant PBP2a; assay type: binding, S. aureus
T1 construct: PBP2a was purified using a previously described protocol (Fuda et al., J. Biol. Chem. 279, 40802-40806 (2004)); made in house
T1 sequence (Q53707 entry or part of it): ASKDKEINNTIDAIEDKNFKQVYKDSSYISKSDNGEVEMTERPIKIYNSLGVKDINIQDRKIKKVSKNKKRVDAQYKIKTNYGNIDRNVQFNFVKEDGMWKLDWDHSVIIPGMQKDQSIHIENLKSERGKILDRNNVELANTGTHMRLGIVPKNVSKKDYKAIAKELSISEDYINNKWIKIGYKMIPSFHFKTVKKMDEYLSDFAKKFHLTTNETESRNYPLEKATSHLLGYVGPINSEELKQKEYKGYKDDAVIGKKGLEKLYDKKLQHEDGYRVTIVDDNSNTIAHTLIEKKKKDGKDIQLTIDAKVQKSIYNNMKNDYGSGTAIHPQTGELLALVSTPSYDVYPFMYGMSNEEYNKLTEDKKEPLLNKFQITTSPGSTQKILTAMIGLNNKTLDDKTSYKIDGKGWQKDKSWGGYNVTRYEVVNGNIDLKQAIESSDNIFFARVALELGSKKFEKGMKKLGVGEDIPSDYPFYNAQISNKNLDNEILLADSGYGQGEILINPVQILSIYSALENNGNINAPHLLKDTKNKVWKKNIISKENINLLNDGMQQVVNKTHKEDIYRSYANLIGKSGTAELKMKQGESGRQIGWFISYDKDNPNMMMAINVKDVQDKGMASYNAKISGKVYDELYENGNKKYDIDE
Excerpt: We next explored if it would inhibit purified recombinant PBP2a by a competition assay with Bocillin FL, a fluorescent penicillin reporter reagent. We purified PBP2a for this study using a previously described protocol from the laboratory of Prof. Mobashery (Fuda et al., J. Biol. Chem. 2004, 279, 40802-40806). This inhibition assay for PBPs has the limitation in that Bocillin FL is a covalent modifier of the active site of PBPs and the equilibrium is inexorably in favor of the irreversible acylation of the active-site serine by the reporter molecule. As such, the degree of inhibition by the non-covalent inhibitor (e.g., 2) will be underestimated.
This inhibition assay for PBPs has the limitation in that Bocillin FL is a covalent modifier of the active site of PBPs and the equilibrium is inexorably in favor of the irreversible acylation of the active-site serine by the reporter molecule. As such, the degree of inhibition by the non-covalent inhibitor (e.g., 2) will be underestimated. This is what was seen.
The Bocillin FL competition assays were performed with purified PBP2a and membrane extracts. […] Samples were centrifuged, loaded to SDS-PAGE, the gels were visualized immediately using a Storm840 Scanner, and fluorescence was quantified using ImageQuant software. IC50 values were calculated using GraphPad prism 5, using the previously published equation.

S. aureus NRS100 = experiment: MIC, CLSI broth microdilution, S. aureus NRS100; assay type: cell-based, Staphylococcus aureus
Description: as §1

HepG2 cells = experiment: cells; conditions: Homo sapiens, HepG2, 16 h, read-out: IC50, XTT cell proliferation assay
Description: HepG2 cells (ATCC HB-8065) were maintained in monolayer culture at 37° C. and 5% CO2 in Dulbecco's Modified Eagle's Medium supplemented with 10% fetal bovine serum, non-essential amino acids, 2 mM L-glutamine, and 1% penicillin-streptomycin. […] The cells were washed with Dulbecco's PBS twice, 150 μL of XTT working solution was added to each well, followed by 3-h incubation. Absorbance at 475 nm (test wavelength) and 660 nm (reference wavelength) was read with a microplate reader. Experiments were performed in triplicate and repeated twice. IC50 values were calculated using GraphPad prism 5.

PBP2a allosteric site = target: T2, PBP2a allosteric site (Staphylococcus aureus, UniProt Q53707); experiment: Intrinsic fluorescence quenching of oxacillin-acylated PBP2a; assay type: binding, S. aureus
T2 construct: made in house
T2 sequence (Q53707 entry or part of it): as above
Description: FIG. 11. Binding of quinazolinone 2 to PBP2a allosteric site. […] (a) The change in the maximum fluorescence intensity was calculated as the difference compared to the intensity in the absence of compound. Any dilution effect was subtracted out using a buffer titration control. […] A nonlinear regression was used to fit the data, with an R^2 of 0.9997. (b) Emission scans of PBP2a intrinsic fluorescence with excitation at 280 nm. Antibiotic 2 was titrated in to give the final concentrations shown and 3 scans (1 min cycles) were averaged for each titration.
Therefore, we have evidence for binding of antibiotic 2 to the allosteric site (X-ray) and to the active site (kinetic assays for competitive inhibition and X-ray altered conformations for the active-site residues) of PBP2a). Binding of antibiotic 2 at the allosteric site induces conformational changes at the active site (FIG. 7B). All of these movements serve to double the area and the volume of the active site.
Therefore, we have evidence for binding of the antibiotic 2 to the allosteric site (X-ray) and to the active site (kinetic assays for competitive inhibition and X-ray altered conformations for the active-site residues) of PBP2a. Binding of antibiotic 2 at the allosteric site induces conformational changes at the active site (FIG. 7b). All of these movements serve to double the area and volume of the active site.

[1] = test system: E. coli S30 extract system; experiment: In vitro translation assay (E. coli S30 extract, β-galactosidase); assay type: biochemical; conditions: up to 64 μg/mL
Excerpt: For in vitro translation, the E. coli S30 Extract System for Circular DNA was used to set up the reactions using plasmid pCP19 containing the lacZ gene for β-galactosidase. Reaction mixtures were supplemented with two-fold dilutions of antibiotic 2 and the β-Galactosidase Enzyme Assay System with Reporter Lysis Buffer was used to quantify the amount of β-galactosidase translated by measuring absorbance at 420 nm. For in vitro transcription, a TranscriptAid T7 High Yield Transcription kit was used with a pET24a/dacB DNA construct under the T7 promoter. The purified plasmid was linearized using the restriction endonuclease XhoI and then purified according to the manufacturer's instructions. A series of samples were prepared and supplemented with two-fold dilutions of antibiotic 2. Samples were analyzed by running on a denaturing 1% formaldehyde agarose gel and stained with ethidium bromide to visualize RNA. Intensities of the bands were quantified and compared to the control to determine the amount of transcription occurring in the presence of 2.

[2] = test system: S. haemolyticus ATCC 29970; experiment: MIC, CLSI broth microdilution, S. haemolyticus ATCC 29970; assay type: cell-based
Description: as §1

Work on `N#Cc1ccc(/C=C/c2nc3ccccc3c(=O)n2-c2cccc(C(=O)O)c2)cc1.[Na]` [Compound 2, Sodium (E)-3-(3-carboxyphenyl)-2-(4-cyanostyryl)quinazolin-4(3H)-one] yielded an MIC (S. aureus NRS120; Staphylococcus aureus, NRS120) of 8 µg/mL, an In vitro AB activity (MIC) (S. aureus NRS120; Table 2.1, S. aureus NRS120) of 8 µg/mL and an IC50 (PBP2a) of 336 µM. It also gave an MIC (S. aureus NRS100; Staphylococcus aureus, NRS100) of 16 µg/mL, an In vitro AB activity (MIC) (S. aureus NRS100; Table 2.1, S. aureus NRS100) of 16 µg/mL and an IC50 (HepG2 cells) of 63 ± 1 µg/mL. For the same compound, the Kd (PBP2a allosteric site) was 16.3 µM, the “Inhibition of in vitro translation” value [1] was “did not show any inhibition; also recorded: No inhibition” and the MIC ([2]; Staphylococcus haemolyticus, ATCC29970) was 1 µg/mL. For the same compound, the In vitro AB activity (MIC) ([2]; Table 2.1, S. haemolyticus ATCC 29970) was 1 µg/mL.
